Data as given in patent US10308607B2, “Fucosidase inhibitors” (HORIZON ORPHAN LLC, priority 2015, dated 2019).
Where “and” joins values, the source holds several entries; their conditions need not be identical. Identical values can stand only once. Like-named read-outs stand apart in the source and are kept apart here.

Legend:
[1] = biological target: rhFUCA1 (Homo sapiens (Human), UniProt P04066); assay: In vitro fucosidase inhibition (4MU-FUC fluorescence); type: biochemical; details: 1 ng/mL rhFUCA1, 640 nM 4MU-FUC, pH 4.5, 37° C., 30 minutes
Chain of rhFUCA1 (P04066 32-466): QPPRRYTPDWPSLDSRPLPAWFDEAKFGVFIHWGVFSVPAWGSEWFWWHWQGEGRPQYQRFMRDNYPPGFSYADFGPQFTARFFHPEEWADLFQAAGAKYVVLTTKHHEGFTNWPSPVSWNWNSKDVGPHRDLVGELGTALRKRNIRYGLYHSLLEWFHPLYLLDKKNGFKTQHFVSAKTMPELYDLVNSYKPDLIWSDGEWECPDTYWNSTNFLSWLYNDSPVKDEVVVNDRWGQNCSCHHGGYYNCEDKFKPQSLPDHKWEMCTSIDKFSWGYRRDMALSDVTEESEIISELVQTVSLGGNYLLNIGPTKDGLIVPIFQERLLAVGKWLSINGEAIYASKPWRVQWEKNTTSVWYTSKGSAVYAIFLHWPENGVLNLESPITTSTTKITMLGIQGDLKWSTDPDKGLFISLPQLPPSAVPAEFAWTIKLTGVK
Procedure: Fucosidase inhibition was assessed by preparing a reaction mixture of 50 mM phosphate-citrate pH 4.5, 5 mM MgCl2, 640 nM 4-methylumbelliferyl-alpha-L-fucopyranoside (4MU-FUC), 1 ng/mL rhFUCA1 (R&D Systems), and compound II, III, or IV:
Reactions (100 μL) were incubated at 37° C. for 30 minutes and then quenched with the same volume of 600 mM citrate-carbonate buffer, pH 9. Fluorescence was measured by excitation at 360 nm and emission at 450 nm.

[2] = Multiplexed cytotoxicity assay; type: cell-based; details: human, read-out: Cytotoxic EC50
Procedure: (§1) To assess the cytotoxicity of compound II (see Example 2) in cancer and normal cells, the cells were grown in RPMI1640, 10% FBS, 2 mM L-alanyl-L-Glutamine, 1 mM Na Pyruvate or a special medium in a humidified atmosphere of 5% CO2 at 37° C. Cells were seeded into 384-well plates and incubated in a humidified atmosphere of 5% CO2 at 37° C. Compound II was added 24 hours post cell seeding. At the same time, a time zero untreated cell plate was generated.
(§2) After a 72 hour incubation period, cells were fixed and stained with fluorescently labeled antibodies and nuclear dye to allow visualization of nuclei, apoptotic cells and mitotic cells. Apoptotic cells were detected using an anti-active caspase-3 antibody. Mitotic cells were detected using an anti phospho-histone-3 antibody.
(§3) Compound II was serially diluted 3.16-fold and assayed over 9 concentrations. Automated fluorescence microscopy was carried out using a GE Healthcare IN Cell Analyzer 1000, and images were collected with a 4× objective.
(§4) Twelve bit tiff images were acquired using the InCell Analyzer 1000 3.2 and analyzed with Developer Toolbox 1.6 software. EC50 and IC50 values were calculated using nonlinear regression to fit data to a sigmoidal 4 point, 4 parameter One-Site dose response model, where: y (fit)=A+[(B−A)/(1+((C/x)^D))]. Curve-fitting, EC50/IC50 calculations and report generation are performed using a custom data reduction engine MathIQ based software (AIM).
(§5) The multiplexed cytotoxicity assay uses a cell image based analysis technique where cells are fixed and stained with fluorescently labeled antibodies and nuclear dye to visualize nuclei, and apoptotic and mitotic cells. Apoptotic cells are detected using an anti-active caspase-3 antibody. Mitotic cells are detected using an anti phospho-histone-3 antibody. Cell proliferation is measured by the signal intensity of the incorporated nuclear dye. The cell proliferation assay output is referred to as the relative cell count. To determine the cell proliferation end point, the cell proliferation data output is transformed to percent of control (POC) using the following formula: POC=relative cell count(compound wells)/relative cell count(vehicle wells)×100.
(§6) Relative cell count IC50 is the test compound concentration at 50% of maximal possible response. A relative cell count EC50 is the test compound concentration at the curve inflection point or half the effective response (parameter C of the fitted curve solution). GI50 is the concentration needed to reduce the observed growth by half. This is the concentration that inhibits the growth midway between untreated cells and the number of cells seeded in the well (Time zero value).
(§7) The activated caspase-3 marker labels cells from early to late stage apoptosis. The output is shown as a fold increase of apoptotic cells over vehicle background normalized to the relative cell count in each well. Concentrations of test compound that cause a 5-fold induction in the caspase-3 signal indicates significant apoptosis induction. Wells with concentrations higher than the relative cell count IC95 are eliminated from the caspase3 induction analysis.
(§8) The phospho-histone-3 marker labels mitotic cells. The output is shown as a fold induction of mitotic cells over vehicle background normalized to the relative cell count in each well. When the fold induction of mitotic cell signal over background is ˜1, there is “no effect” on the cell cycle. Two or more fold increase in phospho-histone-3 signal over vehicle background indicates significant test compound induction of mitotic block.
(§9) Two or more fold decrease in the phospho-histone-3 signal may indicate G1/S block only when cytotoxicity levels are below the measured relative cell count IC95. […]

[3] = system: A549; assay: Multiplexed cytotoxicity assay; type: cell-based; details: A549, lung carcinoma, 72 hour
Procedure: as §1, §2, §3, §4, §5, §6, §7, §8, §9

[4] = system: BxPC-3; assay: Multiplexed cytotoxicity assay; type: cell-based; details: BxPC-3, pancreas carcinoma, 72 hour
Procedure: as §1, §2, §3, §4, §5, §6, §7, §8, §9

[5] = system: HT-1080; assay: Multiplexed cytotoxicity assay; type: cell-based; details: HT-1080, connective sarcoma, 72 hour
Procedure: as §1, §2, §3, §4, §5, §6, §7, §8, §9

[6] = system: HUMSC; assay: Multiplexed cytotoxicity assay; type: cell-based; details: normal mesenchymal stem, 72 hour
Procedure: as §1, §2, §3, §4, §5, §6, §7, §8, §9

[7] = system: HUVEC; assay: Multiplexed cytotoxicity assay; type: cell-based; details: normal endothelium, 72 hour
Procedure: as §1, §2, §3, §4, §5, §6, §7, §8, §9

[8] = system: HeLa; assay: Multiplexed cytotoxicity assay; type: cell-based; details: cervix carcinoma, 72 hour
Procedure: as §1, §2, §3, §4, §5, §6, §7, §8, §9

[9] = system: SKOV3; assay: Multiplexed cytotoxicity assay; type: cell-based; details: SKOV3, ovary carcinoma, 72 hour
Procedure: as §1, §2, §3, §4, §5, §6, §7, §8, §9

[10] = Multiplexed cytotoxicity assay; type: cell-based, human; details: human, HepG2 cells (liver carcinoma), read-out: Cytotoxic EC50
Procedure: as §1, §2, §3
(§10) Twelve bit tiff images were acquired using the InCell Analyzer 1000 3.2 and analyzed with Developer Toolbox 1.6 software. EC50 and IC50 values were calculated using nonlinear regression to fit data to a sigmoidal 4 point, 4 parameter One-Site dose response model, where: y (fit)=A+[(B−A)/(1+((C/x)^D))]. […]

[11] = system: HepG2; assay: Multiplexed cytotoxicity assay; type: cell-based, human; details: HepG2, liver carcinoma, 72 hour
Procedure: as §1, §2, §3, §10

[12] = Pharmacokinetics in mouse plasma; type: in vivo; details: for Conc. of cmpd II: individual animal
Procedure: To assess the pharmacokinetics of compound II (see Example 2) in mouse plasma, compound II was administered intravenously at a dosage of 1 mg/kg. Compound II concentration was measured at various time points up to 24 hours after administration, and the results are provided in Table 5.

Compound: C[C@@H]1N[C@H](CNC(=O)c2cccc3c2C(=O)c2ccccc2-3)[C@@H](O)[C@H](O)[C@@H]1O [Compound II]
- IC50 [1]: 0.016 µM
- EC50 at 72 h ([2]; A549 cells (lung carcinoma)): 29 µM
- EC50 at 72 h ([2]; BxPC-3 cells (pancreas carcinoma), BxPC-3, pancreas carcinoma): 43 µM
- EC50 at 72 h ([2]; HPH (normal primary hepatocytes), normal primary hepatocyte): > 100 µM
- EC50 at 72 h ([2]; HRPTEpiC cells (normal renal)): 72 µM
- EC50 at 72 h ([2]; HT-29 cells (colon carcinoma), HT-29, colon carcinoma): 31 µM
- EC50 at 72 h ([2]; HT-1080 cells (connective sarcoma), HT-1080, connective sarcoma): 21 µM
- EC50 at 72 h ([2]; HUMSC cells (normal mesenchymal stem cells)): 9 µM
- EC50 at 72 h ([2]; HUVEC cells (normal endothelium)): 14 µM
- EC50 at 72 h ([2]; HeLa cells (cervix carcinoma)): 47 µM
- EC50 at 72 h ([2]; K562 cells (blood leukemia)): 98 µM
- EC50 at 72 h ([2]; LNCaP cells (prostate carcinoma)): 54 µM
- EC50 at 72 h ([2]; MDA-MB-231 cells (breast carcinoma), MDA-MB-231, breast carcinoma): 44 µM
- EC50 at 72 h ([2]; NHDF cells (normal skin)): 22 µM
- EC50 at 72 h ([2]; SKOV3 cells (ovary carcinoma)): > 100 µM
- EC50 at 72 h ([2]; SNU-423 cells (liver carcinoma), SNU-423, liver carcinoma): > 100 µM
- EC50 at 72 h ([2]; U-87 MG cells (brain blastoma)): 34 µM
- G1/S arrest [3]: 21 µM
- G1/S arrest [4]: 55 µM
- G1/S arrest [5]: 78 µM
- G1/S arrest [6]: 10 µM
- G1/S arrest [7]: 14 µM
- G1/S arrest [8]: 70 µM
- G1/S arrest [9]: 98 µM
- EC50 at 72 h [10]: 44 µM
- G1/S arrest [11]: 36 µM
- Conc. of cmpd II ([12]; IV 1 mg/kg qdx1, 5 min): 247 ng/mL and 313 ng/mL and 259 ng/mL
- Mean conc. of cmpd II ([12]; IV 1 mg/kg qdx1, 5 min): 273 ng/mL
- Conc. of cmpd II ([12]; IV 1 mg/kg qdx1, 1 h): 28.7 ng/mL and 31.8 ng/mL and 34.3 ng/mL
- Mean conc. of cmpd II ([12]; IV 1 mg/kg qdx1, 1 h): 31.6 ng/mL
- Conc. of cmpd II ([12]; IV 1 mg/kg qdx1, 2 h): 8.58 ng/mL and 5.83 ng/mL and 9.10 ng/mL
- Mean conc. of cmpd II ([12]; IV 1 mg/kg qdx1, 2 h): 7.84 ng/mL
- Conc. of cmpd II ([12]; IV 1 mg/kg qdx1, 4 h): 2.76 ng/mL and 1.86 ng/mL and 3.36 ng/mL
- Mean conc. of cmpd II ([12]; IV 1 mg/kg qdx1, 4 h): 2.66 ng/mL
- Conc. of cmpd II ([12]; IV 1 mg/kg qdx1, 8 h): 1.56 ng/mL and 1.17 ng/mL and 1.57 ng/mL
- Mean conc. of cmpd II ([12]; IV 1 mg/kg qdx1, 8 h): 1.43 ng/mL
- Conc. of cmpd II ([12]; IV 1 mg/kg qdx1, 12 h): 1.04 ng/mL and 1.06 ng/mL and 2.04 ng/mL
- Mean conc. of cmpd II ([12]; IV 1 mg/kg qdx1, 12 h): 1.38 ng/mL
- Conc. of cmpd II ([12]; IV 1 mg/kg qdx1, 24 h): BQL (Below Quantitation limit <1.0 ng/m1)
